system: not given; experiment: not given; conditions: not given

| melting point | Molecule |
| --- | --- |
| 199 to 200 °C | CN(C)CC(=O)Oc1ccc(-c2c(Cl)c(CN3C(=O)CCC3=O)nc3sc4c(c23)CCS(=O)(=O)C4)cc1.Cl |
| 268 to 269 °C | COc1ccc(-c2c(Cl)c(CN3C(=O)CCC3=O)nc3sc4c(c23)CC[S+]([O-])C4)cc1 (centres unmarked) [Example 22, 1-{[3-Chloro-4-(4-methoxyphenyl)-7-oxido-5,8-dihydro-6H-thiopyrano[4′,3′:4,5]thieno[2,3-b]pyridin-2-yl]methyl}-2,5-pyrrolidinedione] |
| 217 to 218.5 °C (dec.) | COc1ccc(-c2c(Cl)c(CN3C(=O)CCC3=O)nc3sc4c(c23)CC[S@+]([O-])C4)cc1 [Example 46, (S)-1-{[3-chloro-4-(4-methoxyphenyl)-7-oxido-5,8-dihydro-6H-thiopyrano[4′,3′:4,5]thieno[2,3-b]pyridin-2-yl]methyl}-2,5-pyrrolidinedione] |
| 215 to 216 °C | COc1ccc(-c2c(Cl)c(CN3C(=O)CCC3=O)nc3sc4c(F)c(OC)ccc4c23)cc1 [Example 60, 1-{[3-chloro-8-fluoro-7-methoxy-4-(4-methoxyphenyl)[1]-benzothieno[2,3-b]pyridin-2-yl]methyl}-2,5-pyrrolidinedione] |
| 272 to 273 °C | CC(=O)Oc1ccc(-c2c(Cl)c(CN3C(=O)CCC3=O)nc3sc4c(c23)CCS(=O)(=O)C4)cc1 [Example 64, 4-{3-chloro-2-[(2,5-dioxo-1-pyrrolidinyl)methyl]-7,7-dioxido-5,8-dihydro-6H-thiopyrano[4′,3′:4,5]thieno[2,3-b]pyridin-4-yl}phenylacetate] |
| 268 to 269 °C | CCC(=O)Oc1ccc(-c2c(Cl)c(CN3C(=O)CCC3=O)nc3sc4c(c23)CCS(=O)(=O)C4)cc1 [Example 65] |
| 215 to 216 °C | CCOC(=O)COc1ccc(-c2c(Cl)c(CN3C(=O)CCC3=O)nc3sc4c(c23)CCS(=O)(=O)C4)cc1 [Example 110, ethyl (4-{3-chloro-2-[(2,5-dioxo-1-pyrrolidinyl)methyl]-7,7-dioxidO-5,8-dihydro-6H-thiopyrano[4′,3′:4,5]thieno[2,3-b]pyridin-4-yl}phenoxy)acetate] |
| 191 to 192 °C | CC(C)(C)OC(=O)COc1ccc(-c2c(Cl)c(CN3C(=O)CCC3=O)nc3sc4c(c23)CCSC4)cc1 [Example 112, tert-butyl (4-{3-chloro-2-[(2,5-dioxo-1-pyrrolidinyl)methyl]-5,8-dihydro-6H-thiopyrano[4′,3′:4,5]-thieno[2,3-b]pyridin-4-yl}phenoxy)acetate] |
| 175 to 176 °C | CC(C)(C)OC(=O)COc1ccc(-c2c(Cl)c(CN3C(=O)CCC3=O)nc3sc4c(c23)CC[S+]([O-])C4)cc1 (centres unmarked) [Example 113, tert-butyl (4-{3-chloro-2-[(2,5-dioxo-1-pyrrolidinyl)methyl]-7-oxido-5,8-dihydro-6H-thiopyrano[4′,3′:4,5]thieno(2,3-b]pyridin-4-yl}phenoxy)-acetate] |
| 204 to 205 °C | CC(C)(C)OC(=O)COc1ccc(-c2c(Cl)c(CN3C(=O)CCC3=O)nc3sc4c(c23)CCS(=O)(=O)C4)cc1 [Example 114, tert-butyl (4-{3-chloro-2-[(2,5-dioxo-1-pyrrolidinyl)methyl]-7,7-dioxido-5,8-dihydro-6H-thiopyrano[4′,3′:4,5]thieno[2,3-b]pyridin-4-yl}phenoxy)acetate] |
| 205 to 206 °C | O=C(O)COc1ccc(-c2c(Cl)c(CN3C(=O)CCC3=O)nc3sc4c(c23)CC[S+]([O-])C4)cc1 (centres unmarked) [Example 115, (4-{3-chloro-2-[(2,5-dioxo-1-pyrrolidinyl)methyl]-7-oxido-5,8-dihydro-6H-thiopyrano[4′,3′:4,5]thieno[2,3-b]pyridin-4-yl}phenoxy)acetic acid] |
| 260 to 261 °C | O=C(O)COc1ccc(-c2c(Cl)c(CN3C(=O)CCC3=O)nc3sc4c(c23)CCS(=O)(=O)C4)cc1 [Example 116, (4-{3-chloro-2-[(2,5-dioxo-1-pyrrolidinyl)methyl]-7,7-dioxido-5,8-dihydro-6H-thiopyrano-[4′,3′:4,5]-thieno[2,3-b]pyridin-4-yl}phenoxy)acetic acid] |

system: Adjuvant Arthritis in Rats; experiment: Effect on adjuvant arthritis in rats (footpad swelling); assay type: in vivo; conditions: male Lewis rats, 3.13 mg/kg/day orally once daily for 14 days, left footpad edema on Day 14; ** p < 0.01 vs. control
Procedure: The test compound was suspended in 0.5% methyl cellulose and administered orally once daily for 14 days to male Lewis rats (7-week old, Japan Clea), which had been sensitized by the intradermal injection of 0.05 ml Freund's complete adjuvant (0.5% suspension of killed Mycobacterium tuberculosis in liquid paraffin) into the right hind footpad. Immediately before the sensitization (Day 0) and on 14 days after the administration (Day 14), the volume of the edema on the left footpad was measured by using a plethysmometer (manufactured by Ugo Basile Company, Italy) and the suppression rate (%) of footpad swelling relative to the unsensitized rats was calculated according to the following equation.
Suppression rate of footpad swelling (%)={1-[(volume of footpad edema in the treatment group)−(volume of footpad edema in the unsensitized group)]/[(volume of footpad edema in the non-treatment group)−(volume of footpad edema in the unsensitized group)]}×100
The results were expressed by the mean±S.E. in each group (n=6) and tested by Dunnet's comparison with a significance level of 5%.

| Molecule | Suppression rate of footpad swelling (%) |
| --- | --- |
| 3-chloro-2-[(2,5-dioxopyrrolidin-1-yl)methyl]-5,6,7,8-tetrahydro-7-oxo-4-(4-methoxyphenyl)[1]-benzothieno[2,3-b]pyridine ethylene ketal [Example 13] | 77** % |
| COc1ccc(-c2c(Cl)c(CN3C(=O)CCC3=O)nc3sc4c(c23)CC[S+]([O-])C4)cc1 (centres unmarked) [Example 22, 1-{[3-Chloro-4-(4-methoxyphenyl)-7-oxido-5,8-dihydro-6H-thiopyrano[4′,3′:4,5]thieno[2,3-b]pyridin-2-yl]methyl}-2,5-pyrrolidinedione] | 88** % |

From US6653476B2, “Thienopyridine derivatives, their production and use” (Takeda Chemical Industries, Ltd., priority 2000, dated 2003)
